According to patent US6083981A, “Sulfonamide substituted aspartic acid interleukin-1β converting enzyme inhibitors” (Warner-Lambert Company, priority 1999, dated 2000):

Assays:
[1] = target: T1, ICE (Homo sapiens, UniProt P29466); test: ICE inhibition, fluorometric Ki (Ac-Tyr-Val-Ala-Asp-AMC substrate); assay type: biochemical; details: 0.24 nM ICE, 15 μM Ac-Tyr-Val-Ala-Asp-AMC, reversible competitive model
T1 sequence (P29466 120-297 limits assumed): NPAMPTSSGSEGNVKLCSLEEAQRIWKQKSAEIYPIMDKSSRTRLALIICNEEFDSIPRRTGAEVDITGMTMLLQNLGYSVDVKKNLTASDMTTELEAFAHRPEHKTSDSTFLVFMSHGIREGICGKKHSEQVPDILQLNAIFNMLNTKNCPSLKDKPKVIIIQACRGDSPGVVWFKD
T1 sequence (P29466 317-404 limits assumed): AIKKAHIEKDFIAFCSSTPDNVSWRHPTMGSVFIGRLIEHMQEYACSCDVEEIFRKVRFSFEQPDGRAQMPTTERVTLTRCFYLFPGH
Protocol: Substrate hydrolysis is monitored for 300 seconds by observing the fluorescence of released AMC using excitation at 380 nm and emission at 460 nm. Mean rates of substrate hydrolysis are evaluated by linear-regression analysis of the fluorescence vs time traces.

[2] = target: T1, ICE; test: ICE Colorimetric Dose-Response (IC50) Assay; assay type: biochemical; details: 24 nM ICE, 60 min preincubation, 50 μM Ac-Tyr-Val-Ala-Asp-pNA, pH 7.5, 25° C
Protocol: Aliquots of each dilution are transferred to a microtitre plate in triplicate.
(§1) ICE enzyme is diluted to approximately 24 nM in HGE buffer (100 mM Hepes pH 7.5, 0.5 mM EDTA, 20% glycerol, 0.1% Bovine Serum Albumin (BSA), and activated by adding dithiothreitol (DTT) to a final concentration of 5 mM. The activated enzyme is then aliquoted into wells containing inhibitor or vehicle, and the plate is preincubated for 60 minutes at ambient temperature. Substrate (Ac--Tyr--Val--Ala--Asp--pNA) is added to each well to a final concentration of 50 μM, and plates are placed in the microtitre plate-reader thermostated to 25° C. Beginning 5 minutes after addition of substrate, absorbance (405 nm) of wells is monitored for 1 hour, and activity is calculated as the mean rate of change in absorbance during this interval.

[3] = target: T2, Ich-2 (Caspase-4) (Homo sapiens, UniProt P49662); test: Ich-2 (Caspase-4) Colorimetric Dose-Response (IC50) Assay; assay type: biochemical; details: 64 nM enzyme, 60 μM Ac-Leu-Glu-Val-Asp-pNA
T2 sequence (P49662 81-270 limits assumed): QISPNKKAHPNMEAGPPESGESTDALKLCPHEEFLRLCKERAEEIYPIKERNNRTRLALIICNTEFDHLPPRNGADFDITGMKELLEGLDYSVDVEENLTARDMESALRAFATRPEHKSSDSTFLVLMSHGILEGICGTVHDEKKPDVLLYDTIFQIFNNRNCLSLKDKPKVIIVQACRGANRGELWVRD
T2 sequence (P49662 290-377 limits assumed): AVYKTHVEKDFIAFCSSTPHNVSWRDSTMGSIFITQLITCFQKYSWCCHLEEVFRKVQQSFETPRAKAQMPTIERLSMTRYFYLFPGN
Protocol: as §1
Inhibition of Ich-2 enzyme is assayed as described above for ICE, except that enzyme is used at 64 nM, and 60 μM of the Ich-2-specific substrate Ac--Leu--Glu--Val--Asp--pNA is used instead of the ICE substrate Ac--Tyr--Val--Ala--Asp--pNA.

[4] = test system: IL-1β production in human peripheral blood mononuclear cells (PBMCs); test: PBMC Cellular Assay, inhibition of LPS-stimulated IL-1β production; assay type: cell-based; details: PBMC; mature IL-1β by ELISA, 10 ng/mL LPS overnight, 2% human AB serum
Source text: (§2) Further evidence that compounds of Formula I, II, and III are inhibitors of ICE is provided by their ability to inhibit IL-1β production in human peripheral blood mononuclear cells (PBMCs) as described herein. PBMCs are isolated from heparinized blood by centrifugation over a ficoll cushion, then washed three times with phosphate-buffered saline. PBMCs are suspended in a medium containing RPMI 1640 with glutamine, penicillin, streptomycin, and 2% human AB serum, then plated at 10^6 cells per well in 96 well flat bottom plates. PBMCs are stimulated overnight with 10 ng/mL of lipopolysaccharide (LPS, E. Coli strain 0111:B4; Calbiochem) in the presence or absence of a compound of Formula I. Medium is harvested and the level of mature IL-1β was determined using an ELISA kit from R & D Systems. Compound inhibition is assessed by determining the concentration of agent which reduces IL-1β levels by 50%. Cells were cultured for an additional four hours in the presence of 3-(4,5-dimethylthiazol-2-yl)-2,5-diphenyltetrazolium bromide (MTT) to determine viability. Compound toxicity can, therefore, be assessed by determining the concentration of agent which kills 50% of the cells (IC50).

[5] = PBMC viability (MTT), compound toxicity; assay type: cell-based; details: human, MTT viability, additional four hours, concentration which kills 50% of the cells, read-out: PBMC TC50
Source text: as §2

Ki [1]	IC50 [2]	IC50 [3]	Compound	IC50 [4]	CC50 [5]
1.6 µM	20.3 µM	88 µM	O=C[C@H](CC(=O)O)NS(=O)(=O)c1ccccc1-c1ccccc1 [Example 1, 3-(Biphenyl-2-Sulfoamino)-4-Oxo-Butyric Acid]	> 100 µM	> 100 µM
6.8 µM	86.8 µM	259 µM	O=C[C@H](CC(=O)O)NS(=O)(=O)c1ccccc1 [Example 2, 3-Benzenesulfonylamino-4-Oxo-Butyric Acid]	> 100 µM	–
3.7 µM	37 µM	70 µM	O=C[C@H](CC(=O)O)NS(=O)(=O)c1ccccc1Cc1ccccc1 [Example 3, 3-(2-Benzyl-Benzenesulfonylamino)-4-Oxo-Butyric Acid]	–	–
–	24 µM	52 µM	O=CC(CC(=O)O)NS(=O)(=O)c1ccccc1Oc1ccccc1 (stereo not shown) [Example 4, 4-Oxo-3-(2-Phenoxy-Benzenesulfonylamino)-Butyric Acid]	–	–
–	8.8 µM	18 µM	Cc1ccc(Oc2ccccc2S(=O)(=O)N[C@H](C=O)CC(=O)O)cc1 [Example 5, 4-Oxo-3-(2-p-Tolyloxy-Benzenesulfonylamino)-Butyric Acid]	67.5 µM	> 100 µM
0.54 µM	5.3 µM	6.1 µM	CC(C)c1ccc(Oc2ccccc2S(=O)(=O)NC(C=O)CC(=O)O)cc1 (stereo not shown) [Example 6, 3-[2-(4-Isopropyl-Phenoxy)-Benzenesulfonylamino]-4-Oxo-Butyric Acid]	23.5 µM	> 100 µM
–	10.8 µM	33 µM	Cc1cccc(Oc2ccccc2S(=O)(=O)N[C@H](C=O)CC(=O)O)c1 [Example 7, 4-Oxo-3-(2-m-Tolyloxy-Benzenesulfonylamino)-Butyric Acid]	67.5 µM	> 100 µM
0.41 µM	3.7 µM	6.1 µM	CC(C)c1cccc(Oc2ccccc2S(=O)(=O)N[C@H](C=O)CC(=O)O)c1 [Example 8, 3-[2-(3-lsopropyl-Phenoxy)-Benzenesulfonylamino]-4-Oxo-Butyric Acid]	45 µM	> 100 µM
6.4 µM	66.2 µM	109 µM	Cc1ccc(-c2ccccc2S(=O)(=O)NC(C=O)CC(=O)O)cc1 (stereo not shown) [Example 9, 3-(4'-Methyl-Biphenyl-2-Sulfonylamino)-4-Oxo-Butyric Acid]	–	–
17 µM	55 µM	569 µM	CCCC(C)C(=O)Nc1ccccc1S(=O)(=O)N[C@H](C=O)CC(=O)O (stereo partly shown) [Example 11, 3-[2-(2-Methyl-Pentanoylamino)-Benzenesulfonylamino]-4-Oxo-Butyric Acid]	–	–
3 µM	14 µM	59 µM	Cc1ccccc1Oc1ccccc1S(=O)(=O)NC(C=O)CC(=O)O (stereo not shown) [Example 12, 4-Oxo-3-(2-o-Tolyloxy-Benzenesulfonylamino)-Butyric Acid]	90 µM	> 100 µM
7 µM	32 µM	167 µM	O=CC(CC(=O)O)NS(=O)(=O)c1ccccc1CCc1ccccc1 (stereo not shown) [Example 13, 4-Oxo-3-(2-Phenethyl-Benzenesulfonylamino)-Butyric Acid]	–	–
2.3 µM	20 µM	35 µM	O=CC(CC(=O)O)NS(=O)(=O)c1ccccc1OC1CCCCC1 (stereo not shown) [Example 14, 3-(2-Cyclohexyloxy-Benzenesulfonylamino)-4-Oxo-Butyric Acid]	90 µM	> 100 µM
1 µM	5.1 µM	22 µM	O=CC(CC(=O)O)NS(=O)(=O)c1ccccc1Oc1ccc2ccccc2c1Cl (stereo not shown) [Example 15, 3-[2-(1-Chloro-Naphthalen-2-Yloxy)-Benzenesulfonylamino]-4-Oxo-Butyric Acid]	50 µM	> 100 µM
1.3 µM	5.8 µM	42 µM	O=CC(CC(=O)O)NS(=O)(=O)c1ccccc1Oc1ccc2c(c1)CCCC2 (stereo not shown) [Example 16, 4-Oxo-3-[2-(5,6,7,8-Tetrahydro-Naphthalen-2-Yloxy)-Benzenesulfonylamino]-Butyric Acid]	65 µM	> 100 µM
0.9 µM	9.2 µM	63 µM	O=CC(CC(=O)O)NS(=O)(=O)c1ccccc1OCCc1ccccc1 (stereo not shown) [Example 17, 4-Oxo-3-(2-Phenethyloxy-Benzenesulfonylamino)-Butyric Acid]	55 µM	> 100 µM
–	1 µM	76 µM	Cc1cc(Oc2ccccc2S(=O)(=O)NC(C=O)CC(=O)O)ccc1C(C)C (stereo not shown) [Example 22, 3-[2-(4-Isopropyl-3-Methyl-Phenoxy)-Benzenesulfonylamino]-4-Oxo-Butyric Acid]	25 µM	> 100 µM
–	3.5 µM	6.5 µM	CCC(CC)c1ccc(Oc2ccccc2S(=O)(=O)NC(C=O)CC(=O)O)cc1 (stereo not shown) [Example 25, 3-{2-[4-(1-Ethyl-Propyl)-Phenoxy]-Benzenesulfonylamino}-4-Oxo-Butyric Acid]	27 µM	> 100 µM
–	7.8 µM	23 µM	Cc1cc(Oc2ccccc2S(=O)(=O)NC(C=O)CC(=O)O)cc(C)c1C (stereo not shown) [Example 26, 4-Oxo-3-[2-(3,4,5-Trimethyl-Phenoxy)-Benzenesulfonylamino]-Butyric Acid]	58 µM	> 100 µM
7 µM	28 µM	603 µM	Cc1ccccc1-c1ccccc1S(=O)(=O)NC(C=O)CC(=O)O (stereo not shown) [Example 32, 3-(2'-Methyl-Biphenyl-2-Sulfonylamino)-4-Oxo-Butyric Acid]	–	–
7 µM	–	77 µM	O=CC(CC(=O)O)NS(=O)(=O)c1ccccc1-c1cccc2ccccc12 (stereo not shown) [Example 33, 3-(2-Naphthalen-1-yl-Benzenesulfonylamino)-4-Oxo-Butyric Acid]	–	–
31 µM	110 µM	602 µM	O=CC(CC(=O)O)NS(=O)(=O)c1cccc2ccccc12 (stereo not shown) [Example 34, 3-(Naphthalene-1-Sulfonylamino)-4-Oxo-Butyric Acid]	–	–
7.7 µM	99 µM	1970 µM	O=CC(CC(=O)O)NS(=O)(=O)c1ccccc1OCC1CCCO1 (stereo not shown) [Example 43, 4-Oxo-3-[2-(Tetrahydro-Furan-2-Ylmethoxy)-Benzenesulfonylamino]-Butyric Acid]	–	–
10 µM	130 µM	525 µM	O=CC(CC(=O)O)NS(=O)(=O)c1ccccc1[N+](=O)[O-] (stereo not shown) [Example 46, 3-(2-Nitro-Benzenesulfonylamino)-4-Oxo-Butyric Acid]	–	–

Compound	Ki [1]	IC50 [2]	IC50 [3]	IC50 [4]	CC50 [5]
3-(2-Methylbutoxy-Benzenesulfonylamino)-4-Oxo-Butyric Acid [Example 30]	4.2 µM	37 µM	221 µM	–	–
CC(C)COc1ccccc1S(=O)(=O)NC(C=O)CC(=O)O (stereo not shown) [Example 10, 3-(2-Isobutoxy-Benzenesulfonylamino)-4-Oxo-Butyric Acid]	4.2 µM	22 µM	318 µM	90 µM	> 100 µM
